Laboratory results: ChEMBL document CHEMBL3352451, “Cyclic side-chain-linked opioid analogs utilizing cis- and trans-4-aminocyclohexyl-D-alanine” (Bioorg Med Chem, 2014)
Bridge positions count the residues as written; N and C are the ends. Square brackets hold non-standard residues; d marks the D form. Peptide text beside a SMILES is read from it.

Legend:
Mu-type opioid receptor = Mu-type opioid receptor (Rattus norvegicus, UniProt P33535); test: Displacement of [3H]DAMGO from MOR in Wistar rat brain membranes by liquid scintillation counting method; type: cell membranes, Membrane
Mu-type opioid receptor, sequence (P33535 whole entry): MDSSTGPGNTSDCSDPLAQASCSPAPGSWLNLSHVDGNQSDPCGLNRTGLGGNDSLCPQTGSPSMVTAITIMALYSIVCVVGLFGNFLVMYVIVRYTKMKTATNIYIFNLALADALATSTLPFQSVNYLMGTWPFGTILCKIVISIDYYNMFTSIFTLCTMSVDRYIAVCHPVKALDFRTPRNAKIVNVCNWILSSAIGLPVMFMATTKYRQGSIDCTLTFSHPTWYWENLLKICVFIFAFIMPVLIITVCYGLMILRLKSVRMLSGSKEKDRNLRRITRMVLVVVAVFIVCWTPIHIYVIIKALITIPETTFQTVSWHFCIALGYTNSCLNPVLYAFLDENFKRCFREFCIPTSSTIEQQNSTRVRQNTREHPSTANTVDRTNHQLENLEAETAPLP

[1] = target: Delta-type opioid receptor (Rattus norvegicus, UniProt P33533); test: Displacement of [3H][Ile5,6]deltorphin-2 from DOR in Wistar rat brain membranes by liquid scintillation counting method; type: cell membranes, Membrane
Delta-type opioid receptor, sequence (P33533 whole entry): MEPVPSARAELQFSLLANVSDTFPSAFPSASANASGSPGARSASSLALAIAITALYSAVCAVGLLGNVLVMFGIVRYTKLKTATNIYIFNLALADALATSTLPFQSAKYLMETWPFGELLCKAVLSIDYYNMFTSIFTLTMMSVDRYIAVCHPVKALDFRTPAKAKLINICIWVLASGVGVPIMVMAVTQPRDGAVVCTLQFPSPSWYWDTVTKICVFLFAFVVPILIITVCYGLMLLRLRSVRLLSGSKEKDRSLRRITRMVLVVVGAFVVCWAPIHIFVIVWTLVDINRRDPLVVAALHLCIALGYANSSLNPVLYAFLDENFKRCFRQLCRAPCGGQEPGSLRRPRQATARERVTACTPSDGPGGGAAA

[2] = target: Kappa-type opioid receptor (Cavia porcellus, UniProt P41144); test: Displacement of [3H]nor-BNI from KOR in Dunkin Hartley guinea pig membranes by liquid scintillation counting method; type: cell membranes
Kappa-type opioid receptor, sequence (P41144 whole entry): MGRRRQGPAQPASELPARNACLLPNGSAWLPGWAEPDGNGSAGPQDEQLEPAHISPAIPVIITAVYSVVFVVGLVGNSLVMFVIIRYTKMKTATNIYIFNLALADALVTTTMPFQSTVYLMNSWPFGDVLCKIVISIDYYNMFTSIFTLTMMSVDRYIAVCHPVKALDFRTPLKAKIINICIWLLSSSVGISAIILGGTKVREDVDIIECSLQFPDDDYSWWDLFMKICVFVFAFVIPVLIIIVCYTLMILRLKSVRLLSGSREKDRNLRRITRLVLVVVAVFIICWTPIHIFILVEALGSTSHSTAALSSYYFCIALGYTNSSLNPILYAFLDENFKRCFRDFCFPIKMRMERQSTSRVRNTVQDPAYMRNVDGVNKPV

NC(=O)[C@@H]1CC(=O)N[C@H]2CC[C@H](CC2)C[C@@H](NC(=O)[C@@H](N)Cc2ccc(O)cc2)C(=O)N[C@@H](Cc2ccccc2)C(=O)N[C@@H](Cc2ccccc2)C(=O)N1
IC50 (Mu-type opioid receptor): 3.2 nM | IC50 [1]: > 1000 nM

NC(=O)[C@@H]1CC(=O)N[C@H]2CC[C@@H](CC2)C[C@@H](NC(=O)[C@@H](N)Cc2ccc(O)cc2)C(=O)N[C@@H](Cc2ccccc2)C(=O)N[C@@H](Cc2ccccc2)C(=O)N1
IC50 (Mu-type opioid receptor): 2.08 nM | IC50 [1]: 3.9 nM

Cc1cc(O)cc(C)c1C[C@H](N)C(=O)N[C@@H]1C[C@H]2CC[C@H](CC2)NC(=O)C[C@@H](C(N)=O)NC(=O)[C@H](Cc2ccccc2)NC(=O)[C@H](Cc2ccccc2)NC1=O
IC50 (Mu-type opioid receptor): 0.04 nM | IC50 [2]: > 1000 nM | IC50 [1]: > 1000 nM

Cc1cc(O)cc(C)c1C[C@H](N)C(=O)N[C@@H]1C[C@H]2CC[C@@H](CC2)NC(=O)C[C@@H](C(N)=O)NC(=O)[C@H](Cc2ccccc2)NC(=O)[C@H](Cc2ccccc2)NC1=O
IC50 (Mu-type opioid receptor): 0.022 nM | IC50 [2]: 25 nM | IC50 [1]: 0.38 nM

NC(=O)[C@@H]1CC(=O)NCCCC[C@@H](NC(=O)[C@@H](N)Cc2ccc(O)cc2)C(=O)N[C@@H](Cc2ccccc2)C(=O)N[C@@H](Cc2ccccc2)C(=O)N1 (H-Y[dK]FFD-NH2; lactam 2-5)
IC50 [2]: 2.36 nM
